Converted amounts (≈) assume the structure as drawn.
Legend:
STK26 = STK26 (Homo sapiens, UniProt Q9P289); experiment: NanoBRET CELLinib128; details: read-out: Tracer bound
EPHB3 = biological target: T1, EPHB3 (Homo sapiens, UniProt P54753); experiment: NanoBRET CELLinib128; assay type: binding; details: 100% no effect, 0% complete tracer displacement, read-out: Tracer bound
T1 construct: Full-length kinase ORF (Promega, Madison, WI, USA) cloned in frame with a NanoLuc-vector was transfected into HEK293T cells; host or cells: HEK293T

IRAK1 = IRAK1 (Homo sapiens, UniProt P51617); experiment: NanoBRET CELLinib128; details: read-out: Tracer bound
EPHA2 = EPHA2 (Homo sapiens, UniProt P29317); experiment: NanoBRET CELLinib128; details: read-out: Tracer bound
EPHA8 = EPHA8 (Homo sapiens, UniProt P29322); experiment: NanoBRET CELLinib128; details: read-out: Tracer bound
ULK2 = biological target: T2, ULK2 (Homo sapiens, UniProt Q8IYT8); experiment: NanoBRET CELLinib128; assay type: binding; details: 100% no effect, 0% complete tracer displacement, read-out: Tracer bound
T2 construct: Full-length kinase ORF (Promega, Madison, WI, USA) cloned in frame with a NanoLuc-vector; host or cells: HEK293T
Outline: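 Live-cell NanoBRET target engagement; HEK293T transfected with full-length NLuc-kinase, 20 h expression. Single-shot 1 μM compound + tracer, 2 h, 37 °C, 5% CO2. BRET read 450/610 nm; normalized to tracer/background ctrl, mean ± SD.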

Nephelometric solubility = assay type: physicochemical; details: aqueous buffer, kinetic from dmso stock; PBS buffer, nephelometry
Protocol: In addition to the degradation and determination of the effects on AML cancer cells, we also determined some physicochemical parameters to assess whether the compounds are suitable for further in vivo studies. Nephelometric measurements were performed to determine the water solubility of some compounds. […] The nephelometric technique has been previously described as a high-throughput method for the solubility determination of compounds in the solvent of interest. This technique measures the intensity of scattered light when visible light passes through a suspension of the tested compound. Relative turbidity is an indication of the insolubility of compounds.
First, equidistant and logarithmic pre-dilutions were prepared in a 96-well plate with round bottoms, using 25 mM stock solutions of compounds MA68 and MA191 in DMSO. Then, 5 μL of each pre-dilution was added to 245 μL of PBS buffer in a 96-well plate with straight bottoms. Quadruplets were prepared for the blank (DMSO + PBS), and final concentrations (one plate per compound) were tested. The final concentrations measured started from 500 μM to 0.78125 μM. A NEPHELOstarplus (BMG LABTECH GmbH, Ortenberg, Germany) was used to measure the solubility, and omega-data analysis software (version 3.42 R5) was used to analyze the results.

MAPK14 = MAPK14 (Homo sapiens, UniProt Q16539); experiment: NanoBRET CELLinib128; details: 1 µM; 100% no effect, 0% complete tracer displacement
CAMK1 = CAMK1 (Homo sapiens, UniProt Q14012); experiment: NanoBRET CELLinib128; details: read-out: Tracer bound
MARK3 = MARK3 (Homo sapiens, UniProt P27448); experiment: NanoBRET CELLinib128; details: read-out: Tracer bound
CDK1-CCNB1 = CDK1-CCNB1 (Homo sapiens, UniProt P06493); experiment: NanoBRET CELLinib128; details: read-out: Tracer bound
EPHB4 = EPHB4 (Homo sapiens, UniProt P54760); experiment: NanoBRET CELLinib128; details: read-out: Tracer bound
MV4-11 cells = experiment: Apoptosis by flow cytometry (annexin-V/propidium iodine); assay type: cell-based, human; details: 24 h
Protocol: To further assess the biological relevance of these findings, we treated MV4-11 cells with the new PROTACs, included MA49 as control, and analyzed them for early (annexin-V positive) and late apoptosis (annexin-V and propidium iodine positive) by flow cytometry. Cells in late apoptosis are more severely damaged than cells in early apoptosis. […] After 72 h, all degraders evoked equal levels of apoptosis (Figure 4c). We additionally tested these degraders in MOLM-13 cells which carry FLT3-ITD and FLT3 from a patient with AML after initial myelodysplastic syndrome. These were hardly affected by the degraders after 24 h (Figure 4d).
Figure 4 Biological and biochemical characterization of the FLT3 PROTACs. (a) MV4-11 cells were incubated for 24 h with 50 nM of the indicated compounds. Immunoblotting was performed for the indicated proteins and their phosphorylation (p-) or cleavage (cl.; indicated by arrows); β-actin was used to ensure equal sample loading. (b) MV4-11 cells were treated with the indicated agents and analyzed for early and late apoptosis by flow cytometry. (c) Same as in (b) but treatment for 72 h. (d) MOLM-13 cells were treated with the indicated agents and analyzed for early and late apoptosis by flow cytometry. […] Immunoblots show the expression of the indicated proteins and their phosphorylation (p-); β-actin was used to ensure equal sample loading. […]

EPHA2, sequence (P29317 24-976): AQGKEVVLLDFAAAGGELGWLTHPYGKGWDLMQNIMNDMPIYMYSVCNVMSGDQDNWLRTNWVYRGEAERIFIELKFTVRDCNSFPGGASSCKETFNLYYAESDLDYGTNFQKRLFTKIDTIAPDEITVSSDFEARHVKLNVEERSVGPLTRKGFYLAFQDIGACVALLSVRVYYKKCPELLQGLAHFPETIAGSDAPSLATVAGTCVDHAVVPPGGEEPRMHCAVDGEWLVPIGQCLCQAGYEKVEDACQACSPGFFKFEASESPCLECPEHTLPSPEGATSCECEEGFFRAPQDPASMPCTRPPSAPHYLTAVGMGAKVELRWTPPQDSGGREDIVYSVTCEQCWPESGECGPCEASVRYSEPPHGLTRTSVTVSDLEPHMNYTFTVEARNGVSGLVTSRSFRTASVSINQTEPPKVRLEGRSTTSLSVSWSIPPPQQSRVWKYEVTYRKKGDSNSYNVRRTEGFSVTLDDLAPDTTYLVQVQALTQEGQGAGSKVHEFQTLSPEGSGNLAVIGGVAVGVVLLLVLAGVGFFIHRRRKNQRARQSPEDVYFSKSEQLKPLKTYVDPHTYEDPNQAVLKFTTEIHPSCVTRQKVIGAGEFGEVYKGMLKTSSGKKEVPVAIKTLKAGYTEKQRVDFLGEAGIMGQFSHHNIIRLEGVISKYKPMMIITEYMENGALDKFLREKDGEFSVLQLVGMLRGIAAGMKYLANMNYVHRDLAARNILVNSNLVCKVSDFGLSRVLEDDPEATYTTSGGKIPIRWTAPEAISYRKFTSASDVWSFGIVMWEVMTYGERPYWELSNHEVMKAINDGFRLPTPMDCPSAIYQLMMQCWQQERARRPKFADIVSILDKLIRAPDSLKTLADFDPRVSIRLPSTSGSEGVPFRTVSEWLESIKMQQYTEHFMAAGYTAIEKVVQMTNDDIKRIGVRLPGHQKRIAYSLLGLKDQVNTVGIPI
EPHA8, sequence (P29322 28-1005): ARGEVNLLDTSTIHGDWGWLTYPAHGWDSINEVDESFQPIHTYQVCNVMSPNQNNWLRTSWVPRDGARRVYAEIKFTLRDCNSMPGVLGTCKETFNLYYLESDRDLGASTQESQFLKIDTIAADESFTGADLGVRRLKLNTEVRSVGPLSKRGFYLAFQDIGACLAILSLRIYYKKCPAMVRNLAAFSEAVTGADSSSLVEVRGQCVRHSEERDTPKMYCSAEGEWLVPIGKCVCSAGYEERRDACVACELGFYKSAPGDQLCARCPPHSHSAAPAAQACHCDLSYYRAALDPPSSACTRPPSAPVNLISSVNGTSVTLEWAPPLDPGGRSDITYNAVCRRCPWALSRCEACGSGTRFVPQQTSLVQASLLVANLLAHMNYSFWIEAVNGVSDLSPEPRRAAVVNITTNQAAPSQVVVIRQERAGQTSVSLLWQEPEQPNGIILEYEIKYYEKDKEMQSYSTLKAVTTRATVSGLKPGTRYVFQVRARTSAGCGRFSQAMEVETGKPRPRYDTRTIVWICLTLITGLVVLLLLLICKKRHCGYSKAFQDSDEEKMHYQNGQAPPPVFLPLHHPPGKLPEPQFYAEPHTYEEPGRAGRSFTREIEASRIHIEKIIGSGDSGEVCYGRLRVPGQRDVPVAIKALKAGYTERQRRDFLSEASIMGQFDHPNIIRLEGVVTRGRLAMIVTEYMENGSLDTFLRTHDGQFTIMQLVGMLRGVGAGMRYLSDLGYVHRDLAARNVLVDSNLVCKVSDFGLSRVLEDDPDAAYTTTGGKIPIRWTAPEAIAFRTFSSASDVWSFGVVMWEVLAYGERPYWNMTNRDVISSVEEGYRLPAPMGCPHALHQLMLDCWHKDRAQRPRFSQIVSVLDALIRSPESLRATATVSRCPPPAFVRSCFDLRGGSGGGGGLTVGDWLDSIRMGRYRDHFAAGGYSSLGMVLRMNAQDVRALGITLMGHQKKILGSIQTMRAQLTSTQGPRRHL
CAMK1, sequence (Q14012 whole entry): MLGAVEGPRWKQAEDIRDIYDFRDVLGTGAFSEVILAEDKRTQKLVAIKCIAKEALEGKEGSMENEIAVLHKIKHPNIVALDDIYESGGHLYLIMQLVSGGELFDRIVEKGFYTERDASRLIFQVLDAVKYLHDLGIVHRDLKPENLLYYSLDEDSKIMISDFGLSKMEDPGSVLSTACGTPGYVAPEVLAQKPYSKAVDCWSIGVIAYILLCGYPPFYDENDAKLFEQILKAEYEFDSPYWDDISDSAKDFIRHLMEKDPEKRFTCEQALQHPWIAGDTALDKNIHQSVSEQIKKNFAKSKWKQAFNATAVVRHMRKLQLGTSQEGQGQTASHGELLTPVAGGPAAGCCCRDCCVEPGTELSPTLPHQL
MAPK14, sequence (Q16539 whole entry): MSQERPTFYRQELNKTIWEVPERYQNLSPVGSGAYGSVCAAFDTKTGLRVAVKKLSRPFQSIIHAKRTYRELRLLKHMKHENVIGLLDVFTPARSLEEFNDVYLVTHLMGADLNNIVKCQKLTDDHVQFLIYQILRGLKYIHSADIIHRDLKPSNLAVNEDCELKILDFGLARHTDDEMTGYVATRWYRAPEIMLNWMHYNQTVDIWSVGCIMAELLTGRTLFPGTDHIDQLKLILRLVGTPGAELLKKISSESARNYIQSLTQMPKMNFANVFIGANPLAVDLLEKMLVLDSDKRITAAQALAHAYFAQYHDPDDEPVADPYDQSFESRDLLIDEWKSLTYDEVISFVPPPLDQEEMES
T2 sequence (Q8IYT8 whole entry): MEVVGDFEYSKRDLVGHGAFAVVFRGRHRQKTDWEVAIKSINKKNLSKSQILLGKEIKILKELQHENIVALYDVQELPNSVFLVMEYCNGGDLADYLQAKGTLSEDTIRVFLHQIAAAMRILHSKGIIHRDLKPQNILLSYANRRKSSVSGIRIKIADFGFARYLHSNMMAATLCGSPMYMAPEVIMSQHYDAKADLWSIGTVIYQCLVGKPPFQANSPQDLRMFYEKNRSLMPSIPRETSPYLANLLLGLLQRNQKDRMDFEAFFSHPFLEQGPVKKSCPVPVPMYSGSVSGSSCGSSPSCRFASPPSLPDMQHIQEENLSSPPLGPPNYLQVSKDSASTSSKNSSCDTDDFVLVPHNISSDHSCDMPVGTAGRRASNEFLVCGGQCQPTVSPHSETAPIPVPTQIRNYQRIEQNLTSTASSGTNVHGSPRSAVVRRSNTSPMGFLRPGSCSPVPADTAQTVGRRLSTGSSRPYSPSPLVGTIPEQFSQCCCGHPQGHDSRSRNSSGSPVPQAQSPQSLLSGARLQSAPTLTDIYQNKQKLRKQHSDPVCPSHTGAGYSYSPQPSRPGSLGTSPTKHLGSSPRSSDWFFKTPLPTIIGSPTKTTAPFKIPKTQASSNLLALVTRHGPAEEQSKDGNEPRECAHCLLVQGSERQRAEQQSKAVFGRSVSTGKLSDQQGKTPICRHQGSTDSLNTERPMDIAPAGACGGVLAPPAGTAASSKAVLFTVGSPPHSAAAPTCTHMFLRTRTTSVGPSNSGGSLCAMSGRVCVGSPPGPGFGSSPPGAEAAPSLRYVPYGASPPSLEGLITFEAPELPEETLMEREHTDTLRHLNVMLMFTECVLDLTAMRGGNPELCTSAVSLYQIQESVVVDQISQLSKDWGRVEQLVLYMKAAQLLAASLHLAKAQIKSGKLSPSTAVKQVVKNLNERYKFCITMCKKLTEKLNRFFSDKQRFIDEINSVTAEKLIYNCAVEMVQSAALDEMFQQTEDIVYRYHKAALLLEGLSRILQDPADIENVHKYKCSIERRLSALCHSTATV
IRAK1, sequence (P51617 whole entry): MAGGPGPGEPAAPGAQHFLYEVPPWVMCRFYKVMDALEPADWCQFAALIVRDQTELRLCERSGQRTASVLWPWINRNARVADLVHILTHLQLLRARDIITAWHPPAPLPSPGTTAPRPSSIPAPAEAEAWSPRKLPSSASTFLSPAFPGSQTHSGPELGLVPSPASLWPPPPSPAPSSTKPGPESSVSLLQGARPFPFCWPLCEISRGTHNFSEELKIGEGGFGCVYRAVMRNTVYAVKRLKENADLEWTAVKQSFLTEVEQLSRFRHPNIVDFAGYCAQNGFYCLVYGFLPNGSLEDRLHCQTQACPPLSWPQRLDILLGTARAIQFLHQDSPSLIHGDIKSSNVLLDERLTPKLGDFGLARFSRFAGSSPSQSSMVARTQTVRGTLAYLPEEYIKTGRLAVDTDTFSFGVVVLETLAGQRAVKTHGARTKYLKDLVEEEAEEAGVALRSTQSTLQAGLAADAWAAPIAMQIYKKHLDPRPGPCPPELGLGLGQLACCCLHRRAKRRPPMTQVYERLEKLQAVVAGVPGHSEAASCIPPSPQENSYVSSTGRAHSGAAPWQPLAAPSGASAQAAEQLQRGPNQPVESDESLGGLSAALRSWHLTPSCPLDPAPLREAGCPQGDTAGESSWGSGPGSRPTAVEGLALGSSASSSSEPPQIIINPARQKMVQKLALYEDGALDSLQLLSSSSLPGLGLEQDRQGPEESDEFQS
STK26, sequence (Q9P289 whole entry): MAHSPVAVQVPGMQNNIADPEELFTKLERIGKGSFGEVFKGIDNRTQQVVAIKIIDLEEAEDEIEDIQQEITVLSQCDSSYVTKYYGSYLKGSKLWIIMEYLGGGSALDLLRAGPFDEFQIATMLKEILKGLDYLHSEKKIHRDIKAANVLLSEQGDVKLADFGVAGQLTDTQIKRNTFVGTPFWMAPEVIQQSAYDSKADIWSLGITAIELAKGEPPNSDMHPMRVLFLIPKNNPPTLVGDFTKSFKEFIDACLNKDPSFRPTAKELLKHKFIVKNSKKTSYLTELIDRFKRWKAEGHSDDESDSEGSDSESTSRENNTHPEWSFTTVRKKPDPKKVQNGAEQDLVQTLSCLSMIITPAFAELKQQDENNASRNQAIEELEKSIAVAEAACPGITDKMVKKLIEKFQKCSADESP

remaining activity at 1 µM (STK26) [%] | remaining activity at 1 µM (EPHB3) [%] | remaining activity at 1 µM (IRAK1) [%] | remaining activity at 1 µM (EPHA2) [%] | remaining activity at 1 µM (EPHA8) [%] | remaining activity at 1 µM (ULK2) [%] | solubility (Nephelometric solubility) [µM] | Tracer bound (MAPK14) [%] | remaining activity at 1 µM (CAMK1) [%] | remaining activity at 1 µM (MARK3) [%] | remaining activity at 1 µM (CDK1-CCNB1) [%] | remaining activity at 1 µM (EPHB4) [%] | SMILES | induction of late apoptosis (MV4-11 cells)
88.5 | 44.8 | 108 | 10.6 | 38.9 | 91.7 | 45.8 (≈ 18.8 µg/mL) | 25.9 | 100 | 105 | 98 | 3.8 | CNC(=O)c1cc(Oc2ccc(NC(=O)Nc3cc(C(C)(C)C)on3)cc2)ccn1 [MA68, reference compound] | 
 |  |  |  |  |  |  |  |  |  |  |  | Cc1ncsc1-c1ccc([C@H](C)NC(=O)[C@@H]2C[C@@H](O)CN2C(=O)[C@@H](NC(=O)[C@H]2CC[C@H](C(=O)N3CCC(CCNC(=O)c4cc(Oc5ccc(NC(=O)Nc6cc(C(C)(C)C)on6)cc5)ccn4)CC3)CC2)C(C)(C)C)cc1 [MA190, 4-(4-(3-(5-(tert-Butyl)isoxazol-3-yl)ureido)phenoxy)-N-(2-(1-(trans-4-(((S)-1-((2S,4R)-4-hydroxy-2-(((S)-1-(4-(4-methylthiazol-5-yl)phenyl)ethyl)carbamoyl)pyrrolidin-1-yl)-3,3-dimethyl-1-oxobutan-2-yl)carbamoyl)cyclohexanecarbonyl)piperidin-4-yl)ethyl)picolinamide] | most effective in inducing late apoptosis
82.3 | 120 | 102 | 104 | 120 | 98.6 | 47.7 (≈ 51.9 µg/mL) | 70.3 | 93.6 | 102 | 81.9 | 120 | Cc1ncsc1-c1ccc([C@H](C)NC(=O)[C@@H]2C[C@@H](O)CN2C(=O)[C@@H](NC(=O)[C@H]2CC[C@H](C(=O)N3CCN(CCNC(=O)c4cc(Oc5ccc(NC(=O)Nc6cc(C(C)(C)C)on6)cc5)ccn4)CC3)CC2)C(C)(C)C)cc1 [MA191, 4-(4-(3-(5-(tert-Butyl)isoxazol-3-yl)ureido)phenoxy)-N-(2-(4-(trans-4-(((S)-1-((2S,4R)-4-hydroxy-2-(((S)-1-(4-(4-methylthiazol-5-yl)phenyl)ethyl)carbamoyl)pyrrolidin-1-yl)-3,3-dimethyl-1-oxobutan-2-yl)carbamoyl)cyclohexanecarbonyl)piperazin-1-yl)ethyl)picolinamide] | most effective in inducing late apoptosis
